The inhibition is the drop in the measured response relative to a control, in per cent.

These results are taken from PubChem BioAssay AID1053201 (The Scripps Research Institute Molecular Screening Center, 2014).

Calls of active or inactive are those of the source. How the calls were made is not given here.

This assay has as its system methionyl-tRNA synthetase (Trypanosoma brucei brucei). The assay can be described thus: inhibition of trypanosome methionyl-tRNA synthetase aminoacylation – biochemical, radioactivity, assay provider, round 3, late-stage follow-up (AID 1053201). To be noted: recombinant T. brucei MetRS enzyme, [3H]methionine tRNA aminoacylation filter assay, 2 h, stronger effect = higher value.

As for `CCN(CC)C(=O)Cc1cn(CC(=O)Nc2cccc(C(F)(F)F)c2)c2ccccc12`, the inhibition is -16.7% (inactive) (at 10 µM) and -13.1% (inhibition, at 1 µM).
For the molecule `CCN(CC)C(=O)C(=O)c1cn(CCNc2cccc(C(F)(F)F)c2)c2ccccc12`, the inhibition by setting is: (at 10 µM) -18.4% (inactive); (inhibition, at 1 µM) -21.5%.
In the case of `CCN(CC)C(=O)C(=O)c1cn(CC(=O)Nc2cc(Oc3ccccc3OC)cc(C(F)(F)F)c2)c2ccccc12`, the inhibition reads like this: (at 10 µM) 98.2%; (inhibition, at 1 µM) 94.7%.
On the same counts, the results for `CCN(CC)C(=O)C(=O)c1cn(CC(=O)Nc2cc(Oc3ccccc3F)cc(C(F)(F)F)c2)c2ccccc12` are 95.6% and 91.9%.
`O=C(Cc1ccc(Nc2nc3ccc(Br)cc3[nH]2)cc1)NCCc1cccs1`: the inhibition runs as follows: (at 10 µM) 23.3% (inactive); (inhibition, at 1 µM) -10.2%.
In the same order, the values of `CCN(CC)C(=O)C(=O)c1cn(CC(=O)Nc2cc(Oc3ccc(OC)cc3)cc(C(F)(F)F)c2)c2ccccc12` are 94.1% and 92.3%.
As for `O=C(Cn1cc(C(=O)C(=O)NCc2ccccc2)c2ccccc21)Nc1cc(Oc2ccccc2)cc(C(F)(F)F)c1`, the inhibition (at 10 µM) is 47.9% (inactive) and the inhibition (inhibition, at 1 µM) was 9.14%.
Turning to `CCN(CC)C(=O)C(=O)c1cn(CC(=O)Nc2cc(Oc3ccc(F)cc3)cc(C(F)(F)F)c2)c2ccccc12`, the inhibition (at 10 µM) was 97.3% and the inhibition (inhibition, at 1 µM) turned out to be 93.1%.
As for `Nc1c(Cl)ncnc1Nc1ccc(C(=O)O)cc1`, the inhibition by setting is: (at 10 µM) 43.1% (inactive); (inhibition, at 1 µM) -5.91%.
On to `CCN(CC)C(=O)C(=O)c1cn(CCNc2cc(Oc3ccccc3)cc(C(F)(F)F)c2)c2ccccc12`, for which the inhibition is 8.12% (inactive) (at 10 µM) and -20.2% (inhibition, at 1 µM).
